{"source": "paper PMC4384115", "about": "“Molecular Recognition of PTS-1 Cargo Proteins by Pex5p: Implications for Protein Mistargeting in Primary Hyperoxaluria” (Biomolecules, 2015)", "key": {"[1]": {"target": "T1, Pex5p-pbd (PTS1 binding domain of human Pex5p, amino acids 235–602) (Homo sapiens, UniProt P50542)", "T1 construct": "Pex5p-pbd; amino acids 235–602; hexa-histidine (N); made in house", "assay": "Isothermal titration calorimetry of AGT proteins and PTS1 nonapeptides with Pex5p-pbd", "details": "for Kd / -TΔS / ΔG / ΔH / decrease in the enthalpic penalty (more favorable enthalpic contribution) to binding compared to the natural PTS1 sequence / N (binding stoichiometry): ITC; for Kd / -TΔS / ΔG / ΔH / N (binding stoichiometry): pH 7.4, 25 °C; for ΔCp: from the linear dependence of ΔH on temperature, 10–35 °C, pH 7.4; for decrease in the enthalpic penalty (more favorable enthalpic contribution) to binding compared to the natural PTS1 sequence: 25 °C, full-length AGT / AGT-LRM background; for N (binding stoichiometry): 20 mM Na-HEPES, 200 mM NaCl, AGT protein in cell titrated with Pex5p-pbd", "procedure": "Calorimetric measurements were carried out using a MicroCal ITC200 microcalorimeter (MicroCal, Malvern Instruments) with 205.9 μL cell volume. All the experiments were performed using 20 mM Na-HEPES (or Na-Phosphate), 200 mM NaCl, pH 7.4. […] Each titration was initiated by a 0.5 μL injection followed by 14–30 injections of 1.2–2.5 μL (spaced 150 s). Heats of dilution were determined experimentally from blank titrations. The association constants (Ka), binding enthalpy changes (ΔH), as well as the binding stoichiometries (N), were obtained by non-linear regression analysis using a one-independent-type-of-sites binding model implemented in the Origin 7.0. Software (Origin Lab Co., Northampton, MA, USA)."}, "CHO cells [2]": {"test_system": "CHO cells", "assay": "Confocal immunofluorescence colocalization of AGT with mitochondria (Mitotracker) in transfected CHO cells", "type": "cell-based, Chinese hamster", "details": "transiently transfected CHO cells, fixed 72 h after transfection; mean ± S.E.; SEM", "procedure": "(§1) Chinese hamster ovary (CHO) cells (ATTC, Rockville, MD USA) were grown in alpha-minimal essential medium (α-MEM, Lonza, Köln, Germany) supplemented with glutamine, penicillin/streptomycin and 5% fetal bovine serum. Cell transfections were performed using AGT cDNA variants (AGT-LRM or AGT-LRM-SKL) subcloned in pCIneo plasmids (Promega) with Transfast reagent (Promega, Madison, WI, USA), following manufacturer’s guidelines. After 24 h, cells were passed to plates containing 13 mm glass coverslips for immunofluorescence studies. Mitochondria in half the coverslips were labeled by incubation with Mitotracker (CMXRos, Invitrogen, Carlsbad, CA, USA) at the end of the culture. […]\n(§2) For quantitative immune-colocalization, the system was optimized to detect two fluorescent signals in one specimen: one in the green channel detector for protein of interest AGT-LRM or AGT-LRM-SKL and the other in the red channel, for either mitochondria labeled with mitotracker or peroxisomes labeled with peroxisomal membrane protein 70 (PMP70) antibody. […] Colocalization events (or the lack thereof) were analyzed quantitatively with FluoView software (Olympus, Tokyo, Japan) and ImageJ software (NIH, Bethesda, MD, USA) with the JACoP plugin, based on a global statistic approach that conducts an intensity correlation coefficient-based examination. […]"}, "CHO cells [3]": {"test_system": "CHO cells", "assay": "Confocal immunofluorescence colocalization of AGT with peroxisomes (PMP70) in transfected CHO cells", "type": "cell-based, Chinese hamster", "details": "mean ± S.E., SEM", "procedure": "as §1, §2"}, "Pex5p": {"target": "Pex5p", "details": "PTS1 octapeptide sequences; read-out: Kd (nM), previously determined dissociation constant; cited from earlier work", "from_the_text": "The protein sequence in which these octapeptides are naturally found, as well as their previously determined dissociation constant, are indicated [7]."}, "[4]": {"details": "PTS1 nonapeptides (500 μM) titrated into Pex5p-pbd (20 μM), means of two independent titrations"}, "[5]": {"details": "AGT proteins, mean ± s.d. of three independent titrations, SD"}, "[6]": {"details": "mean ± s.d. of three independent titrations, SD"}}, "note": "No end group written: not given here.", "data": [{"substance": "YVGSLKSKL [pACO]", "values": [{"measurement": "Kd", "setting": "[1]; [4]", "value": 14, "unit": "nM"}]}, {"substance": "YQSHPRAKL [pCRA]", "values": [{"measurement": "Kd", "setting": "[1]; [4]", "value": 157, "unit": "nM"}]}, {"substance": "YQHCPKSKL [pAGT-SKL]", "values": [{"measurement": "Kd", "setting": "[1]; [4]", "value": 29, "unit": "nM"}]}, {"substance": "YQHCPKKKL [pAGT]", "values": [{"measurement": "Kd", "setting": "[1]; [4]", "value": 19000, "unit": "nM"}]}, {"substance": "QHCPK S KL [AGT-SKL]", "values": [{"measurement": "-TΔS", "setting": "[1]; [5]", "value": "-11.8 ± 0.406", "unit": "kcal/mol"}, {"measurement": "ΔG", "setting": "[1]; [5]", "value": "-10.3 ± 0.22", "unit": "kcal/mol"}, {"measurement": "ΔH", "setting": "[1]; [5]", "value": "1.51 ± 0.19", "unit": "kcal/mol"}, {"measurement": "ΔCp", "setting": "[1]; AGT proteins", "value": "−2.7 ± 0.1", "unit": "kJ/mol·K"}, {"measurement": "decrease in the enthalpic penalty (more favorable enthalpic contribution) to binding compared to the natural PTS1 sequence", "setting": "[1]", "value": "about 16 kJ/mol"}, {"measurement": "N (binding stoichiometry)", "setting": "[1]; [6]", "value": "0.8 ± 0.1"}, {"measurement": "Pearson Rr, AGT + Mitotracker", "setting": "CHO cells [2]", "value": "0.47 ± 0.08"}, {"measurement": "% Coloc (Manders' m), AGT + PMP70", "setting": "CHO cells [3]; CHO cells, given as fraction, split Manders' M1 in situation 2, Manders' overlap R in situation 4", "value": "0.84 ± 0.08"}, {"measurement": "Pearson Rr, AGT + PMP70", "setting": "CHO cells [3]; transiently transfected CHO cells, fixed 72 h after transfection", "value": "0.79 ± 0.08"}]}, {"substance": "QHCPKKKL [AGT, alanine: glyoxylate aminotransferase, reference compound]", "values": [{"measurement": "-TΔS", "setting": "[1]; [5]", "value": "-13.2 ± 0.287", "unit": "kcal/mol"}, {"measurement": "Kd", "setting": "[1]; [5]", "value": "1400 ± 200", "unit": "nM"}, {"measurement": "ΔG", "setting": "[1]; [5]", "value": "-8.01 ± 0.096", "unit": "kcal/mol"}, {"measurement": "ΔH", "setting": "[1]; [5]", "value": "5.19 ± 0.884", "unit": "kcal/mol"}, {"measurement": "ΔCp", "setting": "[1]; AGT proteins", "value": "−2.5 ± 0.4", "unit": "kJ/mol·K"}, {"measurement": "N (binding stoichiometry)", "setting": "[1]; [6]", "value": "1.0 ± 0.1"}]}, {"substance": "VAQATC KL [HMG, reference compound]", "values": [{"measurement": "decrease in the enthalpic penalty (more favorable enthalpic contribution) to binding compared to the natural PTS1 sequence", "setting": "[1]", "value": "about 16 kJ/mol"}, {"measurement": "Kd", "setting": "Pex5p", "value": 2000, "unit": "nM"}]}, {"substance": "VGSL K S KL [ACO]", "values": [{"measurement": "Kd", "setting": "Pex5p", "value": 1.6, "unit": "nM"}]}]}
